Source: patent US20240400555A1 (Initial Therapeutics, Inc., priority 2023, published 2024)

Experiments:
[1] = system: c-MYC; assay: In Vitro Translation Dose-Response Curves (In Vitro Multiple Point Translation Screening Assay); format: biochemical; details: IVT dose response curve
Procedure: HeLa S3 cell Preparation. HeLa S3 cells were grown essentially as described in Mikami 2010. Frozen aliquots of banked HeLa cells (ATCC #CCL-2.2) were thawed and diluted into agitated suspension culture in CD293 medium supplemented with 10% HI FBS, 1× GlutaMAX, and 1× Pen/Strep. Cells were expanded in suspension over 10 passages to inoculate 3×20 L wave bag bioreactors and cultured for approximately 48 h to a final density of 1.81×10^6 viable cells per mL. Cells were pelleted by centrifugation at 2500 RCF for 15 min at 4° C. Two 1 L pellets were combined in 32 sets and re-pelleted in 50 ml conical tubes, resulting in 32×10 mL cell pellets weighing approximately 10 g each. Final pellets were snap frozen in liquid nitrogen and stored at −80° C. (cell culture, harvesting, and cryo-preservation completed at LakePharma). Cell pellets were subsequently thawed at RT, resuspended in 15 mL wash buffer (35 mM HEPES-KOH, pH 7.5, 140 mM NaCl, and 11 mM glucose), then re-pelleted by centrifugation at 2500 RCF for 10 min at 4° C. The supernatant was discarded and the wash step repeated 2×. The pellets were resuspended each pellet in 10 mL in hypertonic extraction buffer (20 mM HEPES-KOH, pH 7.5, 45 mM potassium acetate, 45 mM KCl, 1.8 mM magnesium acetate, and 1 mM TCEP added directly before use). The cell suspension was transferred to a cell disruption vessel (Parr Instrument Company, model 4636, 1850 mL capacity) and incubated for 15 min on ice, then sealed under nitrogen (200 PSI) for 1.5 h. The cell homogenates were released through a needle valve and collected on ice, then diluted with 1/29 volume high potassium buffer (20 mM HEPES-KOH, pH 7.5, 945 mM potassium acetate, 945 mM KCl, 1.8 mM magnesium acetate, and 1 mM TCEP). The cell homogenates were then clarified by centrifugation at 2500 RCF for 10 min at 4° C. and the supernatant collected. The clarification step was repeated 3×. The resulting cell extracts (675 mL, 2.5 mg/mL total protein) were aliquoted and flash frozen in liquid nitrogen and stored at −80° C. until use.
Translation reactions were incubated for 20 min at 30° C. Nanoluciferase luminescence was measured by combining 2 μL of IVT reaction with 20 μL of prepared reagent from the Nanoglo assay kit (Promega). A negative control of 0.5% DMSO and positive control of 50 μM puromycin were used to define to assay window.
Dose response curve IVTs were performed similar to the single point IVT screening with the following changes. The desired concentration curves were plated into 384 well plates from DMSO stocks using a Tecan D300e dispenser. […] After reaction incubation and luminescence measurement, dose-response curves were fit to the data using Prism (Graphpad) or Collaborative Drug Discovery analysis programs.

[2] = system: HCT-116 Firefly-luciferase reporter cells; assay: Cellular c-MYC Reporter Assay; format: cell-based; details: Homo sapiens, HCT-116 Firefly-luciferase reporter cells, 24 h; for IC50: untitled table following Table 8a, read-out: pIC50 (converted)
Method in brief: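 Reporter cells seeded at 5e4 cells/mL in McCoy's 5A with 10% FBS and G418, dosed after 4–6 h at 0.2% final DMSO. After 24 h at 37 °C, luciferase luminescence was read with ONE-Glo.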

[3] = system: c-MYC; assay: Cellular c-MYC Alpha Screen; format: cell-based; details: Homo sapiens; c-MYC alpha screen dose response, HCT-116 reporter cells, 24 h; read-out: Geomean pIC50 (converted)
Procedure: HCT-116 Firefly-luciferase reporter cells (BPS bioscience) were seeded in 96-well tissue-culture treated sterile plates (Greiner Bio-One) at 7.5e4 cells/mL in 100 μL complete growth media (McCoy's 5A+10% FBS, +1% Pen-Strep, +1% G418). Cells were incubated at 37° C. with 5% CO2 for 24 h then treated with 3× compound solution in 50 μL complete growth media for a final volume of 150 μL per well with 0.2% DMSO. After 24 h incubation at 37° C. with 5% CO2, plates were allowed to equilibrate to RT for 20 min; the media was then aspirated, and the plate washed once with 200 μL 1×PBS. Cells were then lysed by addition of 1× Alpha Screen lysis buffer (50 μL) from the Perkin Elmer alpha Screen c-MYC detection kit (Part number 6760611C). The lysate is then transferred to ice and advanced to the Alpha Screen detection assay or sealed with adhesive foil and stored at −80° C. for up to 2 weeks before use.
The alpha screen detection assay was then performed as per the vendors instructions. Briefly the acceptor bead mix was prepared as per vendors instructions. 30 ul of the cell lysate is transferred to a 96-well white assay plate. 15 ul of the acceptor mix was added to each well and incubated in the dark for at least one hour. Then the donor bead mix was prepared as per vendors instructions and 15 ul of this was added to the assay plate. The plate was then incubated at RT for one hour in the dark. The plate was then read in the SpectraMax i3x plate reader (Molecular Devices) using the alpha screen module (excitation wavelength 680 emission wavelength 615) and analyzed using GraphPad Prism 9 software.

Structure (SMILES)	IC50 [2] [nM]	other results
Cc1cccc2ccnc(N(C(=O)c3ccc(-n4ccnn4)cc3)[C@@H]3CCCNC3)c12 [Example 54, (R)-N-(8-methylisoquinolin-1-yl)-N-(piperidin-3-yl)-4-(1H-1,2,3-triazol-1-yl)benzamide]		Geomean pIC50 [1]: 4.70 (n = 2)
Cc1cccc2ccnc(N(C(=O)c3ccc(-n4c(C)nc5ccccc54)cc3)[C@@H]3CCCNC3)c12 [Example 57, (R)-4-(2-methyl-1H-benzo[d]imidazol-1-yl)-N-(8-methylisoquinolin-1-yl)-N-(piperidin-3-yl)benzamide]		EC50 ([2]; HCT-116, 24 h, read-out: Geomean pEC50 (converted)): 257 nM; Geomean pIC50 [1]: 4.6 (n = 2)
Cc1cc(C2CCN(C(=O)N(c3nccc4cccc(C)c34)[C@@H]3CCCNC3)CC2)on1 [Example 243, (R)—N-(8-methylisoquinolin-1-yl)-4-(3-methylisoxazol-5-yl)-N-(piperidin-3-yl)piperidine-1-carboxamide]	525	IC50 [3]: 398 nM
O=C(c1ccc(-n2nnc3cccnc32)cc1F)N(c1nccc2ccc(Br)cc12)[C@@H]1CCCNC1 [Example 283, (R)-4-(3H-[1,2,3]triazolo[4,5-b]pyridin-3-yl)-N-(7-bromoisoquinolin-1-yl)-2-fluoro-N-(piperidin-3-yl)benzamide]	1200	
Cc1ccnc(N(C(=O)c2ccc(-n3nnc4cccnc43)cc2F)[C@@H]2CCCNC2)c1Cl [Example 284, (R)-4-(3H-[1,2,3]triazolo[4,5-b]pyridin-3-yl)-N-(3-chloro-4-methylpyridin-2-yl)-2-fluoro-N-(piperidin-3-yl)benzamide]	1200	
Cc1cccc2ccnc(N(C(=O)c3ccc(-n4nnc(C(C)C)n4)cc3F)[C@@H]3CCCNC3)c12 [Example 285, (R)-2-fluoro-4-(5-isopropyl-2H-tetrazol-2-yl)-N-(8-methylisoquinolin-1-yl)-N-(piperidin-3-yl) benzamide]	295	
CCCc1nnn(-c2ccc(C(=O)N(c3nccc4cccc(C)c34)[C@@H]3CCCNC3)c(F)c2)n1 [Example 286, (R)-2-fluoro-N-(8-methylisoquinolin-1-yl)-N-(piperidin-3-yl)-4-(5-propyl-2H-tetrazol-2-yl) benzamide]	195	
Cc1cccc2ccnc(N(C(=O)N3CC=C(c4ccccc4)CC3)[C@@H]3CCCNC3)c12 [Example 287, (R)—N-(8-methylisoquinolin-1-yl)-4-phenyl-N-(piperidin-3-yl)-3,6-dihydropyridine-1(2H)-carboxamide]	5890	
Cc1cccc2ccnc(N(C(=O)N3CCC(c4cc(C(N)=O)no4)CC3)[C@@H]3CCCNC3)c12 [Example 288, (R)-5-(1-((8-methylisoquinolin-1-yl)(piperidin-3-yl)carbamoyl)piperidin-4-yl)isoxazole-3-carboxamide]	1350	
O=C(c1ccc(-n2nnc3cccnc32)cc1F)N(c1ncccc1/C=C/CO)[C@@H]1CCCNC1 [Example 289, (R,E)-4-(3H-[1,2,3]triazolo[4,5-b]pyridin-3-yl)-2-fluoro-N-(3-(3-hydroxyprop-1-en-1-yl)pyridin-2-yl)-N-(piperidin-3-yl)benzamide]	> 5890	
Cc1cccc2ccnc(N(C(=O)c3ccc(Nc4ncco4)cc3F)[C@@H]3CCCNC3)c12 [Example 290, (R)-2-fluoro-N-(8-methylisoquinolin-1-yl)-4-(oxazol-2-ylamino)-N-(piperidin-3-yl) benzamide]	3390	
O=C(c1ccc(-c2cccc3cnccc23)cc1F)N(c1cc2ccccc2cn1)[C@@H]1CCCNC1 [Example 291, (R)-2-fluoro-N-(isoquinolin-3-yl)-4-(isoquinolin-5-yl)-N-(piperidin-3-yl)benzamide]	1260	
Cc1cccc2ccnc(N(C(=O)c3ccc(Nc4cccc(=O)[nH]4)cc3F)[C@@H]3CCCNC3)c12 [Example 292, (R)-2-fluoro-N-(8-methylisoquinolin-1-yl)-4-((6-oxo-1,6-dihydropyridin-2-yl)amino)-N-(piperidin-3-yl)benzamide]	> 20000	
Cc1cccc2ccnc(N(C(=O)c3ccc(-n4nnc5ccc(C(=O)O)nc54)cc3F)[C@@H]3CCCNC3)c12 [Example 293, (R)-3-(3-fluoro-4-((8-methylisoquinolin-1-yl)(piperidin-3-yl)carbamoyl)phenyl)-3H-[1,2,3]triazolo[4,5-b]pyridine-5-carboxylic acid]	> 20000	
Cc1cccc2ccnc(N(C(=O)c3ccc(-c4cnn(C)c4C(=O)O)cc3)[C@@H]3CCCNC3)c12 [Example 294, 2-methyl-4-[4-[(8-methyl-1-isoquinolyl)-[(3R)-3-piperidyl]carbamoyl]phenyl] pyrazole-3-carboxylic acid]	> 10000	
O=C(O)/C=C/c1ccc2ccnc(N(C(=O)c3ccc(-n4nnc5cccnc54)cc3F)[C@@H]3CCCNC3)c2c1 [Example 295, (R,E)-3-(1-(4-(3H-[1,2,3]triazolo[4,5-b]pyridin-3-yl)-2-fluoro-N-(piperidin-3-yl)benzamido)isoquinolin-7-yl)acrylic acid]	> 20000	
Cc1cccc2ccnc(N(C(=O)c3ccc(-c4n[nH]c5c4CNCC5)cc3F)[C@@H]3CCCNC3)c12 [Example 296, (R)-2-fluoro-N-(8-methylisoquinolin-1-yl)-N-(piperidin-3-yl)-4-(4,5,6,7-tetrahydro-1H-pyrazolo[4,3-c]pyridin-3-yl)benzamide]	> 20000	
Cc1cccc2ccnc(N(C(=O)N3CCC(O)(c4ccccc4OCc4ccccc4)CC3)[C@@H]3CCCNC3)c12 [Example 297, (R)-4-(2-(benzyloxy)phenyl)-4-hydroxy-N-(8-methylisoquinolin-1-yl)-N-(piperidin-3-yl)piperidine-1-carboxamide]	7760	
Cc1cccc2ccnc(N(C(=O)c3ccc(-n4nnc(C(C)Cl)n4)cc3F)[C@@H]3CCCNC3)c12 (stereo partly drawn) [Example 298, 4-(5-(1-chloroethyl)-2H-tetrazol-2-yl)-2-fluoro-N-(8-methylisoquinolin-1-yl)-N—((R)-piperidin-3-yl) benzamide]	263	
Cc1cccc2ccnc(N(C(=O)N3CC=C(c4ccccc4OCc4ccccc4)CC3)[C@@H]3CCCNC3)c12 [Example 299, (R)-4-(2-(benzyloxy)phenyl)-N-(8-methylisoquinolin-1-yl)-N-(piperidin-3-yl)-3,6-dihydropyridine-1(2H)-carboxamide]	5500	
O=C(c1ccc(-n2nnc3cccnc32)cc1F)N(c1nccc2ccncc12)[C@@H]1CCCNC1 [Example 300, (R)-4-(3H-[1,2,3]triazolo[4,5-b]pyridin-3-yl)-2-fluoro-N-(2,7-naphthyridin-1-yl)-N-(piperidin-3-yl)benzamide]	> 20000	
Cc1cccc2ccnc(N(C(=O)C3CCN(C=O)CC3)[C@@H]3CCCNC3)c12 [Example 301, (R)-1-formyl-N-(8-methylisoquinolin-1-yl)-N-(piperidin-3-yl) piperidine-4-carboxamide]	> 10000	
